Test results from the CheMixHub ionic liquid set.
± gives the uncertainty stated by the source.

Assay: xn = mol fraction of the nth substance listed

CCCCCC[n+]1ccn(C)c1.O=S(=O)([N-]S(=O)(=O)C(F)(F)F)C(F)(F)F + C1CCOC1
298.15 K, 100 kPa
Settings	electrical conductivity [S/m]
x1 = 0.0649	0.9 ± 0.1
x1 = 0.09702	1.1 ± 0.1
x1 = 0.1393	1 ± 0.1
x1 = 0.194	1.3 ± 0.1
x1 = 0.2742	0.9 ± 0.1

CCCCCCCC(=O)[O-].c1c[nH+]c[nH]1 + CC#N
101.3 kPa
Settings	viscosity [mPa·s]
293.15 K, x2 = 0.298	37.82 ± 0.87
293.15 K, x2 = 0.499	17.94 ± 0.42
293.15 K, x2 = 0.5995	10.6 ± 0.27
293.15 K, x2 = 0.8996	1.201 ± 0.039
303.15 K, x2 = 0	56.48 ± 0.89
303.15 K, x2 = 0.1044	45.4 ± 1
303.15 K, x2 = 0.5995	9.6 ± 0.24
308.15 K, x2 = 0.499	12.8 ± 0.31
318.15 K, x2 = 0.298	18.21 ± 0.43
318.15 K, x2 = 0.4005	14.1 ± 0.34
323.15 K, x2 = 0.499	10.2 ± 0.25
323.15 K, x2 = 0.5995	7.6 ± 0.2

CCCCCC[n+]1ccn(C)c1.O=S(=O)([N-]S(=O)(=O)C(F)(F)F)C(F)(F)F + CC#N
298.15 K, 100 kPa
Settings	electrical conductivity [S/m]
x1 = 0.03801	3.3 ± 0.3
x1 = 0.0581	3.7 ± 0.4
x1 = 0.08404	4 ± 0.4
x1 = 0.1205	3.6 ± 0.4
x1 = 0.1763	2.8 ± 0.3

CCCCCC[n+]1ccn(C)c1.[Br-] + CC#N
viscosity [mPa·s], 101 kPa
Settings	288.15 K	298.15 K	308.15 K	318.15 K
x1 = 0.004174	0.403 ± 0.009	0.364 ± 0.008	0.333 ± 0.007	0.306 ± 0.007
x1 = 0.008131	0.424 ± 0.009	0.383 ± 0.008	0.35 ± 0.007	0.322 ± 0.007
x1 = 0.01172	0.424 ± 0.009	0.389 ± 0.008	0.371 ± 0.008	0.342 ± 0.007

CCCCCC[n+]1ccn(C)c1.[Br-] + CC(=O)Oc1ccccc1C(=O)O + CC#N
viscosity [mPa·s], 101 kPa
Settings	288.15 K	298.15 K	308.15 K	318.15 K
x2 = 0, x1 = 0.004174	0.403 ± 0.009	0.364 ± 0.008	0.333 ± 0.007	0.306 ± 0.007
x2 = 0, x1 = 0.008131	0.424 ± 0.009	0.383 ± 0.008	0.35 ± 0.008	0.322 ± 0.007
x2 = 0, x1 = 0.01172	0.424 ± 0.009	0.389 ± 0.008	0.371 ± 0.008	0.342 ± 0.007

OC[C@H]1O[C@@H](O[C@H]2[C@H](O)[C@@H](O)C(O)O[C@@H]2CO)[C@H](O)[C@@H](O)[C@@H]1O (stereo not given in full) + CC(=O)[O-].CC[n+]1ccn(C)c1
100 kPa
Settings	viscosity [mPa·s]
292.4 K, x1 = 0.0255	339 ± 25
302.1 K, x1 = 0.08067	921 ± 78
312.5 K, x1 = 0.004998	61 ± 4
312.5 K, x1 = 0.01515	73 ± 5
322.6 K, x1 = 0.01515	45 ± 3
322.6 K, x1 = 0.08067	207 ± 14
332.2 K, x1 = 0.0255	39 ± 2
332.2 K, x1 = 0.08067	123 ± 8
342.5 K, x1 = 0.004998	20 ± 1

Cn1ccnc1 + CC(=O)[O-].CC[n+]1ccn(C)c1 + CCOC(C)=O
298.15 K, 101 kPa
Settings	electrical conductivity [S/m]	viscosity [mPa·s]
x2 = 0, x1 = 0.5	–	0.93 ± 0.02
x2 = 0.09996, x1 = 0.45	0.259 ± 0.005	1.32 ± 0.03
x2 = 0.2001, x1 = 0.4	0.444 ± 0.009	2.05 ± 0.05
x2 = 0.3, x1 = 0.35	0.61 ± 0.012	3.17 ± 0.07
x2 = 0.3995, x1 = 0.3003	0.724 ± 0.014	5.06 ± 0.11
x2 = 0.5003, x1 = 0.2498	0.795 ± 0.016	7.59 ± 0.17
x2 = 0.598, x1 = 0.201	0.776 ± 0.016	12.8 ± 0.3
x2 = 0.7028, x1 = 0.1486	0.697 ± 0.014	21.4 ± 0.5
x2 = 0.8002, x1 = 0.09992	0.578 ± 0.012	37.1 ± 1
x2 = 0.8978, x1 = 0.0511	0.452 ± 0.009	67.4 ± 2.2

CC(=O)[O-].C[NH+]1CCOCC1 + CC(=O)[O-].Cn1cc[nH+]c1
Settings	electrical conductivity [S/m]
298.15 K, 100 kPa, x2 = 0.71	0.274 ± 0.0055

CCCCCC[n+]1ccn(C)c1.O=S(=O)([N-]S(=O)(=O)C(F)(F)F)C(F)(F)F + CC(C)=O
298.15 K, 100 kPa
Settings	electrical conductivity [S/m]
x1 = 0.0527	2.6 ± 0.3
x1 = 0.07996	3.1 ± 0.3
x1 = 0.1149	3.1 ± 0.3
x1 = 0.163	2.4 ± 0.2
x1 = 0.2325	2 ± 0.2

CCCCCC[n+]1ccn(C)c1.O=S(=O)([N-]S(=O)(=O)C(F)(F)F)C(F)(F)F + CC(C)O
viscosity [mPa·s], 100 kPa
Settings	x2 = 0	x2 = 0.0845	x2 = 0.2111	x2 = 0.3269	x2 = 0.4529	x2 = 0.5435	x2 = 0.637	x2 = 0.7321	x2 = 0.8285	x2 = 0.9173
293.15 K	85.2 ± 8.6	73.5 ± 7.4	57 ± 5.7	42.3 ± 4.3	29.9 ± 3	22.4 ± 2.2	16.2 ± 1.6	12 ± 1.2	8.01 ± 0.81	4.5 ± 0.46
298.15 K	65.9 ± 6.6	56.6 ± 5.7	44.5 ± 4.5	34.1 ± 3.4	24.2 ± 2.4	18.8 ± 1.9	13.6 ± 1.4	9.86 ± 0.99	6.52 ± 0.66	3.73 ± 0.38
303.15 K	51.9 ± 5.2	45 ± 4.5	36.5 ± 3.7	28.6 ± 2.9	20.2 ± 2	15.6 ± 1.6	11.4 ± 1.1	8.26 ± 0.83	5.51 ± 0.56	3.24 ± 0.33
308.15 K	41.4 ± 4.2	36 ± 3.6	30.5 ± 3.1	24.1 ± 2.4	17.2 ± 1.7	13.2 ± 1.3	9.62 ± 0.97	7.11 ± 0.71	4.67 ± 0.47	2.82 ± 0.29
313.15 K	33.8 ± 3.4	30.5 ± 3.1	25.6 ± 2.6	20.6 ± 2.1	14.9 ± 1.5	11.3 ± 1.1	8.31 ± 0.84	6.06 ± 0.61	3.98 ± 0.4	2.41 ± 0.24

CC[n+]1ccn(CCOC)c1.O=S(=O)([O-])C(F)(F)F + CC(C)O
viscosity [mPa·s], 101 kPa
Settings	x1 = 0.0997	x1 = 0.2004	x1 = 0.3004	x1 = 0.4003	x1 = 0.5004	x1 = 0.601	x1 = 0.7	x1 = 0.8	x1 = 0.9	x1 = 1
288.15 K	4.72 ± 0.11	7.33 ± 0.2	10.86 ± 0.36	16.19 ± 0.57	21.8 ± 1	33.6 ± 1.3	47.3 ± 1.4	64.2 ± 1.8	85.2 ± 2.6	121 ± 4.5
293.15 K	4.047 ± 0.094	6.23 ± 0.17	9.17 ± 0.3	13.53 ± 0.47	18.15 ± 0.81	27.6 ± 1	38 ± 1.1	51.3 ± 1.3	65.2 ± 1.7	92.5 ± 2.9
298.15 K	3.489 ± 0.081	5.36 ± 0.14	7.83 ± 0.25	11.45 ± 0.39	15.16 ± 0.67	22.88 ± 0.83	31.09 ± 0.93	41.4 ± 1.1	52.2 ± 1.3	72.5 ± 2
303.15 K	3.03 ± 0.071	4.64 ± 0.12	6.75 ± 0.21	9.8 ± 0.33	12.85 ± 0.55	19.27 ± 0.68	25.81 ± 0.76	33.89 ± 0.9	42.7 ± 1.1	57.9 ± 1.5
308.15 K	2.654 ± 0.062	4.06 ± 0.11	5.87 ± 0.18	8.47 ± 0.28	11.07 ± 0.48	16.64 ± 0.57	21.71 ± 0.62	28.27 ± 0.75	35.58 ± 0.92	47.3 ± 1.2
313.15 K	2.336 ± 0.055	3.599 ± 0.096	5.15 ± 0.16	7.38 ± 0.24	9.64 ± 0.41	14.32 ± 0.49	18.62 ± 0.53	23.79 ± 0.63	30.09 ± 0.77	39 ± 1
318.15 K	2.068 ± 0.048	3.192 ± 0.085	4.55 ± 0.14	6.49 ± 0.21	8.54 ± 0.35	12.42 ± 0.42	16.2 ± 0.45	20.22 ± 0.53	25.83 ± 0.66	32.59 ± 0.85

CCCC[N+](CCCC)(CCCC)CCCC.[Br-] + CCCCCCCCCCCCOS(=O)(=O)[O-].[Na+] + O
viscosity [mPa·s], 100 kPa
Settings	x2 = 1.81e-06, x1 = 0.0001802	x2 = 3.61e-06, x1 = 0.0001802	x2 = 5.42e-06, x1 = 0.0001802	x2 = 7.23e-06, x1 = 0.0001802	x2 = 9.04e-06, x1 = 0.0001802	x2 = 1.084e-05, x1 = 0.0001802	x2 = 1.265e-05, x1 = 0.0001802	x2 = 1.446e-05, x1 = 0.0001802	x2 = 1.627e-05, x1 = 0.0001802	x2 = 1.807e-05, x1 = 0.0001802
293.15 K	1.023 ± 0.027	1.024 ± 0.027	1.026 ± 0.027	1.027 ± 0.027	1.028 ± 0.027	1.029 ± 0.027	1.029 ± 0.027	1.03 ± 0.027	1.03 ± 0.027	1.03 ± 0.027
298.15 K	0.916 ± 0.027	0.919 ± 0.027	0.92 ± 0.027	0.921 ± 0.027	0.922 ± 0.027	0.922 ± 0.027	0.923 ± 0.027	0.924 ± 0.027	0.924 ± 0.027	0.925 ± 0.027
303.15 K	0.8 ± 0.027	0.801 ± 0.027	0.802 ± 0.027	0.802 ± 0.027	0.803 ± 0.027	0.803 ± 0.027	0.803 ± 0.027	0.803 ± 0.027	0.804 ± 0.027	0.804 ± 0.027
308.15 K	0.72 ± 0.026	0.721 ± 0.026	0.722 ± 0.026	0.723 ± 0.026	0.724 ± 0.026	0.724 ± 0.026	0.724 ± 0.026	0.725 ± 0.026	0.725 ± 0.026	0.725 ± 0.026
313.15 K	0.654 ± 0.026	0.655 ± 0.026	0.656 ± 0.026	0.657 ± 0.026	0.657 ± 0.026	0.657 ± 0.026	0.657 ± 0.026	0.657 ± 0.026	0.657 ± 0.026	0.658 ± 0.026
318.15 K	0.6 ± 0.026	0.601 ± 0.026	0.601 ± 0.026	0.601 ± 0.026	0.602 ± 0.026	0.602 ± 0.026	0.602 ± 0.026	0.602 ± 0.026	0.602 ± 0.026	0.603 ± 0.026
